In patent US20050106745A1, “Combination of solubility and membrane permeability measurement methods for profiling of chemical compounds” (AGY Therapeutics, Inc., priority 2003, published 2005):
Values after ≈ are worked out from the molar mass of the structure shown. Structures can show the parent of a compound that is named as a salt. Where two headings read alike, the source gives them in different places.

Tests used:
[1] = Solubility determination, modified Direct UV method (Sol-PAMPA solubility portion); details: for solubility kinetic at 90 min / solubility at 90 min: kinetic from dmso stock
Experimental: The aqueous and aqueous/methanol solutions were shaken for 90 minutes at room temperature. Using a 96-tip Biomek FX liquid handling system (Beckman Coulter, Fullterton, Calif.), the solutions were transferred to a MultiScreen-Solubility 96-well filterplate (MSSLBPC10, Millipore, Mass.), vacuum filtered, and collected into a clean 96-deepwell plate. […] The sample wells were diluted in the UV/Vis plate with pre-dispensed methanol (20% v/v) for spectroscopic consistency. The remaining portion of the filtrate was sealed and kept in a cool, dark place to be used within 2 hours in the permeability assay. […] The absorption spectra were then corrected for variance in path length by the PathCheck™ algorithm in the SoftMaxPro® software. Next, the optical density (OD) at an appropriate wavelength (λ) was determined for each compound by the analysis algorithm as follows: the UV-Visible spectra were analyzed with a program written in HPBASIC for Windows (TransEra Corporation, Orem, Utah). Briefly, from the spectrum of each well a heuristically matched, scaled and appropriately shifted baseline was subtracted. The locations (λ) and the values of all the peaks [OD(λ)] were then determined. […] In addition, built in user interface tools offered a convenient way to review and manually reassign the λ values to address special cases. When no peaks were found in the spectra, the OD values at 265 nm were used.
For the solubility calculation, a consensus λ was determined for the sample and reference spectra and the corresponding OD values were used in equation (1). The concentrations of the compounds in solution were determined by the following formula: [formula] where OD(λ)sample and OD(λ)Reference are the optical densities at a given wavelength for each compound and [Reference] is the same compound at a known reference concentration.

in vitro = details: PAMPA, pH 7.4
[2] = BBB-PAMPA effective permeability (Sol-PAMPA); details: for AGY Ranking (CNS+/CNS−): ranking from BBB-Sol-PAMPA Pe; for Papp at 16 h: PAMPA; for Pe × 10^−6 (effective BBB permeability): BBB-PAMPA, pH 7.4 to 7.4, input at solubility limit, 16 hours, n=7
[3] = cited from earlier work
[4] = rat model, literature (Kelder et al. 1999); cited from earlier work
[5] = PAMPA
[6] = cited from earlier work; remark: listed apart in the source

SMILES: CN(C)C(=O)C(CCN1CCC(O)(c2ccc(Cl)cc2)CC1)(c1ccccc1)c1ccccc1 [Loperamide]
- solubility kinetic at 90 min ([1]; pH 7.4, aqueous buffer): 165 µM (≈ 78.7 µg/mL)
- Papp (in vitro): 1.07 ×10⁻⁶ cm/s
- AGY Ranking (CNS+/CNS−) [2]: − (CNS- compounds have a Pe<2.0×10^−6 cm/sec)

SMILES: Nc1ccc(/N=N/c2ccccc2)c(N)n1 [Phenazopyridine, phenazopyridine]
- solubility at 90 min ([1]; pH 3, aqueous buffer): 332 µM (≈ 70.8 µg/mL)
- solubility at 90 min ([1]; pH 5, aqueous buffer): 89 µM (≈ 19 µg/mL)
- solubility at 90 min ([1]; pH 7.4, aqueous buffer): 86 µM (≈ 18.3 µg/mL)
- solubility at 90 min ([1]; pH 9, aqueous buffer): 71 µM (≈ 15.1 µg/mL)
- Literature (solubility) ([3]; pH 3): >350 µM
- Literature (solubility) ([3]; pH 5): 150 µM
- Literature (solubility) ([3]; pH 7.4): 58 µM
- Literature (solubility) ([3]; pH 9): 49 µM

SMILES: NC(=O)N1c2ccccc2C=Cc2ccccc21 [Carbamazepine, carbamazepine]
- solubility kinetic at 90 min ([1]; pH 7.4, aqueous buffer): 253 µM (≈ 59.8 µg/mL)
- [Brain]/[Blood] [4]: 1.00
- Papp at 16 h ([2]; pH 7.4): 12.9 ×10⁻⁶ cm/s
- AGY Ranking (CNS+/CNS−) [2]: + (CNS+ compounds have a Pe>2.0×10^−6 cm/sec)

SMILES: CN1CC[C@@]23CCCC[C@@H]2[C@@H]1Cc1ccc(O)cc13 [Dextrophan, dextrophan]
- pH 7.4 Solubility ([1]; pH 7.4, Table 2 test set, n=7): 300 μM
- AGY Ranking (CNS+/CNS−) [5]: + (key: CNS+ compounds have a Pe>2.0×10^−6 cm/sec; CNS- compounds have a Pe<2.0×10^−6 cm/sec)
- Pe × 10^−6 (effective BBB permeability) ([5]; pH 7.4): 3.14 ×10^−6 cm/sec
- In Vivo CNS +/− [6]: +

SMILES: Cl.NC1CCN(c2cccc(Cl)n2)CC1 [SR-57227A]
- pH 7.4 Solubility ([1]; pH 7.4, Table 2 test set, n=7): 294 μM
- Pe × 10^−6 (effective BBB permeability) [2]: 6.12 ×10^−6 cm/sec
- AGY Ranking (CNS+/CNS−) [2]: + (CNS+ compounds have a Pe>2.0×10^−6 cm/sec)

SMILES: CN(C)CCC=C1c2ccccc2CCc2ccccc21 [Amitriptyline HCl, amitriptyline]
- solubility kinetic at 90 min ([1]; pH 7.4, aqueous buffer): 163 µM
- [Brain]/[Blood] [4]: 9.55
- Papp at 16 h ([2]; pH 7.4): 12.8 ×10⁻⁶ cm/s
- AGY Ranking (CNS+/CNS−) [2]: + (CNS+ compounds have a Pe>2.0×10^−6 cm/sec)

SMILES: Cc1cc(NC(=O)C2=C(O)c3ccccc3S(=O)(=O)N2C)no1 [Isoxicam, isoxicam]
- solubility kinetic at 90 min ([1]; pH 7.4, aqueous buffer): 322 µM (≈ 108 µg/mL)
- Papp at 16 h ([2]; pH 7.4): 0.71 ×10⁻⁶ cm/s
- AGY Ranking (CNS+/CNS−) [2]: − (CNS- compounds have a Pe<2.0×10^−6 cm/sec)

SMILES: c1ccc2nc(N3CCNCC3)ccc2c1 [Quipazine]
- solubility kinetic at 90 min ([1]; pH 7.4, aqueous buffer): 239 µM (≈ 51 µg/mL)
- Papp at 16 h ([2]; pH 7.4): 14.9 ×10⁻⁶ cm/s
- AGY Ranking (CNS+/CNS−) [2]: + (CNS+ compounds have a Pe>2.0×10^−6 cm/sec)

SMILES: c1cc(CN2CCCCC2)cc(OCCCNc2nc3ccccc3s2)c1 [Zolantidine]
- solubility kinetic at 90 min ([1]; pH 7.4, aqueous buffer): 108 µM (≈ 41.2 µg/mL)
- [Brain]/[Blood] [4]: 1.38
- Papp at 16 h ([2]; pH 7.4): 12.5 ×10⁻⁶ cm/s
- AGY Ranking (CNS+/CNS−) [2]: + (CNS+ compounds have a Pe>2.0×10^−6 cm/sec)

SMILES: CCn1cc(C(=O)O)c(=O)c2cc(F)c(N3CCNC(C)C3)c(F)c21 (centres unmarked) [Lomafloxacin, lomafloxacin]
- pH 7.4 Solubility ([1]; 90 min, pH 7.4): 288 μM
- Pe × 10^−6 (effective BBB permeability) [2]: 0.17 ×10^−6 cm/sec
- AGY Ranking (CNS+/CNS−) [2]: − (CNS- compounds have a Pe<2.0×10^−6 cm/sec)

SMILES: Cn1c(=O)c2c(ncn2C)n(C)c1=O [Caffeine, caffeine]
- AGY Ranking (CNS+/CNS−) [2]: − (CNS- compounds have a Pe<2.0×10^−6 cm/sec)

SMILES: CN1C(C(=O)Nc2ccccn2)=C(O)c2ccccc2S1(=O)=O [Piroxicam, piroxicam]
- solubility at 90 min ([1]; pH 3, aqueous buffer): 55 µM (≈ 18.2 µg/mL)
- solubility at 90 min ([1]; pH 5, aqueous buffer): 66 µM (≈ 21.9 µg/mL)
- solubility at 90 min ([1]; pH 7.4, aqueous buffer): 257 µM (≈ 85.2 µg/mL)
- solubility at 90 min ([1]; pH 9, aqueous buffer): 336 µM (≈ 111 µg/mL)
- Literature (solubility) ([3]; pH 3): 32 µM
- Literature (solubility) ([3]; pH 5): 32 µM
- Literature (solubility) ([3]; pH 7.4): 300 µM
- Literature (solubility) ([3]; pH 9): >350 µM

SMILES: CNCCCN1c2ccccc2CCc2ccccc21 [Desipramine, desipramine]
- solubility at 90 min ([1]; pH 3, aqueous buffer): > 350 µM
- solubility at 90 min ([1]; pH 5, aqueous buffer): > 350 µM
- solubility at 90 min ([1]; pH 7.4, aqueous buffer): > 350 µM
- solubility kinetic at 90 min ([1]; pH 7.4, aqueous buffer): 274 µM (≈ 73 µg/mL)
- solubility at 90 min ([1]; pH 9, aqueous buffer): > 350 µM
- Literature (solubility) ([3]; pH 7.4): 155 µM
- [Brain]/[Blood] [4]: 10.00
- Papp at 16 h ([2]; pH 7.4): 17.9 ×10⁻⁶ cm/s
- AGY Ranking (CNS+/CNS−) [2]: + (CNS+ compounds have a Pe>2.0×10^−6 cm/sec)

SMILES: CC(C)(C)[N+]([O-])=Cc1ccccc1 [N-tert-Butyl-a-phenylnitrone, N-tert-Butyl-alpha-phenylnitrone]
- AGY Ranking (CNS+/CNS−) [2]: + (CNS+ compounds have a Pe>2.0×10^−6 cm/sec)

SMILES: Clc1cccc(Cl)c1N=C1NCCN1 [Clonidine, clonidine]
- solubility kinetic at 90 min ([1]; pH 7.4, aqueous buffer): 248 µM (≈ 57.1 µg/mL)
- [Brain]/[Blood] [4]: 1.29
- Papp at 16 h ([2]; pH 7.4): 2.01 ×10⁻⁶ cm/s
- AGY Ranking (CNS+/CNS−) [2]: + (CNS+ compounds have a Pe>2.0×10^−6 cm/sec)

SMILES: COCCCC/C(=N\OCCN)c1ccc(C(F)(F)F)cc1 [Fluvoxamine, fluvoxamine]
- solubility kinetic at 90 min ([1]; pH 7.4, aqueous buffer): 207 µM (≈ 65.9 µg/mL)

SMILES: Cn1c(=O)c2[nH]cnc2n(C)c1=O [Theophylline, theophylline]
- solubility at 90 min ([1]; pH 3, aqueous buffer): 330 µM (≈ 59.5 µg/mL)
- solubility at 90 min ([1]; pH 5, aqueous buffer): 337 µM (≈ 60.7 µg/mL)
- solubility at 90 min ([1]; pH 7.4, aqueous buffer): 290 µM (≈ 52.2 µg/mL)
- solubility at 90 min ([1]; pH 9, aqueous buffer): > 350 µM
- Literature (solubility) ([3]; pH 7.4): >350 µM

SMILES: CC(C)NCC(O)COc1cccc2ccccc12 (centres unmarked) [Propranolol, s-propranolol]
- solubility at 90 min ([1]; pH 3, aqueous buffer): > 350 µM
- solubility at 90 min ([1]; pH 5, aqueous buffer): > 350 µM
- solubility at 90 min ([1]; pH 7.4, aqueous buffer): > 350 µM
- solubility at 90 min ([1]; pH 9, aqueous buffer): > 350 µM
- Literature (solubility) ([3]; pH 7.4): 240 µM

SMILES: CNC(=C[N+](=O)[O-])NCCSCc1ccc(CN(C)C)o1 [Ranitidine HCl, ranitidine]
- solubility kinetic at 90 min ([1]; pH 7.4, aqueous buffer): 174 µM
- [Brain]/[Blood] [4]: 0.06
- Papp at 16 h ([2]; pH 7.4): 0.02 ×10⁻⁶ cm/s
- AGY Ranking (CNS+/CNS−) [2]: − (CNS- compounds have a Pe<2.0×10^−6 cm/sec)

SMILES: C[C@]12N[C@H](Cc3ccccc31)c1ccccc12 [MK-801, dizocilpine]
- solubility kinetic at 90 min ([1]; pH 7.4, aqueous buffer): 212 µM (≈ 46.9 µg/mL)

SMILES: O=C(O)Cc1ccccc1Nc1c(Cl)cccc1Cl [Diclofenac, diclofenac]
- solubility at 90 min ([1]; pH 3, aqueous buffer): 9 µM (≈ 2.67 µg/mL)
- solubility at 90 min ([1]; pH 5, aqueous buffer): 18 µM (≈ 5.33 µg/mL)
- solubility at 90 min ([1]; pH 7.4, aqueous buffer): 274 µM (≈ 81.1 µg/mL)
- solubility at 90 min ([1]; pH 9, aqueous buffer): 324 µM (≈ 96 µg/mL)
- Literature (solubility) ([3]; pH 5): 30 µM
- Literature (solubility) ([3]; pH 7.4): >350 µM
- Literature (solubility) ([3]; pH 9): >350 µM
- Papp at 16 h [2]: ~10 ×10⁻⁶ cm/s
